Patent US20160074466A1, “ANGIOTENSINS FOR TREATMENT OF FIBROSIS” (UNIVERSITY OF SOUTHERN CALIFORNIA, priority 2011, published 2016)

Legend:
NASH mice [1] = assay: Liver hydroxyproline content in NASH mice; type: in vivo; settings: normalized by total protein
Source text: (§1) In this example, NASH was induced in 48 male mice by a single subcutaneous injection of streptozotocin (STZ, Sigma-Aldrich, USA) solution 2 days after birth and feeding with high fat diet (HFD, 57 kcal % fat, cat#HFD32, CLEA Japan, Japan) after 4 weeks of age. The mice were randomized into 6 groups of 8 mice at 7 weeks of age according to Table 1 below. Eight male littermates, fed with normal diet without STZ treatment, were used for the Normal group.
(§2) Group 1 (normal) consisted of eight normal mice fed with a normal diet ad libitum without any treatment. Group 2 (vehicle) consisted of eight NASH mice that were subcutaneously administered vehicle at a volume of 5 mL/kg once daily from 7 to 10 weeks of age. Group 3 (TXA127-30 μg) consisted of eight NASH mice that were subcutaneously administered vehicle supplemented with TXA127 at a dose of 30 μg/5 mL/kg once daily from 7 to 10 weeks of age. Group 4 (TXA127-100 μg) consisted of eight NASH mice that were subcutaneously administered vehicle supplemented with TXA127 at a dose of 100 μg/5 mL/kg once daily from 7 to 10 weeks of age. Group 5 (TXA127-300 μg) consisted of eight NASH mice that were subcutaneously administered vehicle supplemented with TXA127 at a dose of 300 μg/5 mL/kg once daily from 7 to 10 weeks of age. Group 6 (TXA127-1,000 μg) consisted of eight NASH mice that were subcutaneously administered vehicle supplemented with TXA127 at a dose of 1,000 μg/5 mL/kg once daily from 7 to 10 weeks of age. Group 7 consisted of eight NASH mice that were orally administered pure water supplemented with Telmisartan at a dose of 15 mg/10 mL/kg once daily from 8 to 10 weeks of age.
(§3) Vehicle (saline) and TXA127 were administered via subcutaneous administration to the mice in a volume of 5 mL/kg body weight. Telmisartan was administered by oral route to the mice in a volume of 10 mL/kg body weight. TXA127 was dissolved in saline, and Telmisartan (MICARDIS®) was purchased from Boehringer Ingelheim GmbH and was dissolved in pure water. TXA127 was administered once daily at the doses of 30, 100, 300 or 1000 μg/kg body weight. Telmisartan was administered once daily at the dose of 15 mg/kg body weight.
To quantify liver hydroxyproline content, frozen livers (40-60 mg) were minced and defatted in acetone for 30 minutes at room temperature. After centrifugation, the pellets were air-dried and dissolved in 400 μL of 2N NaOH at 65° C. The liver lysates were autoclaved at 121° C. for 20 minutes. The samples were then acid-hydrolyzed with 400 μL of 6N HCl at 121° C. for 20 minutes, and neutralized with 400 μL of 10 mg/mL activated carbon in 4N NaOH. The neutralized samples were buffered with 2.2 M acetic acid/0.48 M citric acid buffer and centrifuged to obtain the supernatant. In order to construct a standard curve of hydroxyproline, serial dilutions of trans-4-hydroxy-L-proline standard (Sigma, USA) were prepared starting at 16 μg/mL. Five hundred μL of the supernatant and standard were added to 500 μL chloramine T in 10% n-propanol/acetate-citrate buffer and incubated for 25 minutes at room temperature. […] After samples were cooled on ice and centrifuged to collect the supernatant, the optical density of each supernatant and standard was measured at 560 nm and the concentration of liver hydroxyproline was calculated form the hydroxyproline standard curve. Protein concentrations of each supernatant were determined using a BCA protein assay kit (Thermo Scientific, USA). […]

TIMP-1 mRNA = assay: Quantitative RT-PCR of liver, TIMP-1 mRNA; type: in vivo, mice
Description: (§4) The animals, groups, treatment conditions and time points are the same as for Example 3 above. Livers were harvested from the animals in Example 3 and subjected to the following analysis.
(§5) Total RNA was extracted from liver samples using RNAiso (Takara Bio, Japan) according to the manufacturer's instructions. One μg of RNA was reverse-transcribed using a reaction mixture containing 4.5 mM MgCl2 (Roche, Switzerland), 40 U RNase inhibitor (Toyobo, Japan), 0.5 mM dNTP (Promega, USA), 6.28 μM random hexamer (Promega), 5× first strand buffer (Promega), 6.6 mM dithiothreitol (Invitrogen, USA) and MMLV-RT (Invitrogen) in a final volume of 20 μL. The reaction was carried out for 1 hour at 37° C., followed by 5 minutes at 99° C. Real-time PCR was performed using real-time PCR DICE and SYBR premix Taq (Takara Bio). To calculate the relative mRNA expression level, the expression of each gene was normalized to that of reference gene 36B4 (gene symbol: Rp1p0). Statistical analyses were performed using Bonferroni Multiple Comparison Test on Prism Software 4. P values <0.05 were considered statistically significant. The expression level of Collagen Type I, collagen type 3, α-SMA, TGF-β, CCR2, and TIMP-1 mRNA were assessed.

NASH mice [2] = assay: Liver weight, NAS and inflammatory cell infiltration in NASH mice (summary statements); type: in vivo
Source text: as §1, §2
as §3, with “Telmisartan was administered once daily at the dose of 15 mg/kg body weight.” left out

α-SMA mRNA = assay: Quantitative RT-PCR of liver, α-SMA mRNA; type: in vivo, mice
Description: as §4, §5

[3] = Plasma ALT, AST and ALP levels in STZ/high fat diet NASH mice; type: in vivo
Source text: as §1, §2, §3
(§6) Non-fasting whole blood glucose levels were measured in whole blood samples using G Checker (Sanko Junyaku, Japan). For plasma biochemistry, blood was collected in polypropylene tubes with anticoagulant (Novo-Heparin, Mochida Pharmaceutical, Japan) and centrifuged at 1,000×g for 15 minutes at 4° C. The supernatant was collected and stored at −80° C. until use. The plasma levels of ALT, AST, and ALP were measured by FUJI DRI-CHEM 7000 (Fuji Film, Japan).

NASH mice [4] = assay: Sirius red staining of liver sections, fibrosis area, in NASH mice; type: in vivo
Source text: as §1, §2, §3
For quantitative analysis of fibrosis areas, bright field images of
Sirius red-stained sections were captured using a digital camera (DFC280, Leica, Germany) around central veins at 200-fold magnification, and the positive areas in 5 fields/section were quantified using ImageJ software (National Institute of Health, USA).

[5] = Non-fasting whole blood glucose in STZ/high fat diet NASH mice; type: in vivo
Source text: as §1, §2, §3, §6

Collagen Type 3 mRNA = assay: Quantitative RT-PCR of liver, Collagen Type 3 mRNA; type: in vivo, mice
Description: as §4, §5

Collagen Type 1 mRNA = assay: Quantitative RT-PCR of liver, Collagen Type 1 mRNA; type: in vivo, mice
Description: as §4, §5

TGF-β mRNA = assay: Quantitative RT-PCR of liver, TGF-β mRNA; type: in vivo, mice
Description: as §4, §5

CCR2 mRNA = assay: Quantitative RT-PCR of liver, CCR2 mRNA; type: in vivo, mice
Description: as §4, §5

[6] = 30 μg/kg SQ QD, 7-10 wks of age
[7] = 100 μg/kg SQ QD, 7-10 wks of age
[8] = 300 μg/kg SQ QD, 7-10 wks of age
[9] = 1000 μg/kg SQ QD, 7-10 wks of age
[10] = relative to 36B4, Normal = 1.00, 30 μg/kg SQ QD
[11] = relative to 36B4, Normal = 1.00, 100 μg/kg SQ QD
[12] = relative to 36B4, Normal = 1.00, 300 μg/kg SQ QD
[13] = relative to 36B4, Normal = 1.00, 1000 μg/kg SQ QD
[14] = 15 mg/kg oral QD, 8-10 wks of age
[15] = relative to 36B4, Normal = 1.00, 15 mg/kg oral QD
[16] = 15 mg/kg oral QD, compared with the Vehicle group

TXA127: test substance dissolved in saline, given subcutaneously; not defined in the text, apparently the angiotensin-(1-7) peptide (DRVYIHP; Angiotensin 1-7; UniProt P01019 25-31, looked up)
liver hydroxyproline content (NASH mice [1]; [6]): 1.22 ± 0.29 µg/mg
liver hydroxyproline content (NASH mice [1]; [7]): 0.88 ± 0.17 µg/mg
liver hydroxyproline content (NASH mice [1]; [8]): 1.24 ± 0.51 µg/mg
liver hydroxyproline content (NASH mice [1]; [9]): 1.34 ± 0.69 µg/mg
TIMP-1 mRNA expression levels (TIMP-1 mRNA; [10]): 6.74±1.93
TIMP-1 mRNA expression levels (TIMP-1 mRNA; [11]): 9.80±8.93
TIMP-1 mRNA expression levels (TIMP-1 mRNA; [12]): 7.54±3.05
TIMP-1 mRNA expression levels (TIMP-1 mRNA; [13]): 8.54±6.41
inflammatory cell infiltration (NASH mice [2]; all doses (30, 100, 300, 1000 μg/kg SQ QD)): decreased inflammatory cell infiltration
α-SMA mRNA expression levels (α-SMA mRNA; [10]): 2.88±1.08
α-SMA mRNA expression levels (α-SMA mRNA; [11]): 2.65±2.46
α-SMA mRNA expression levels (α-SMA mRNA; [12]): 2.49±0.98
α-SMA mRNA expression levels (α-SMA mRNA; [13]): 1.92±0.67
plasma ALP levels [3, 6]: 428±61 U/L
plasma ALT levels [3, 6]: 46±15 U/L
plasma AST levels [3, 6]: 160±94 U/L
plasma ALP levels [3, 7]: 358±75 U/L
plasma ALT levels [3, 7]: 89±56 U/L
plasma AST levels [3, 7]: 352±174 U/L
plasma ALP levels [3, 8]: 472±100 U/L
plasma ALT levels [3, 8]: 43±17 U/L
plasma AST levels [3, 8]: 149±50 U/L
plasma ALP levels [3, 9]: 397±96 U/L
plasma ALT levels [3, 9]: 41±10 U/L
plasma AST levels [3, 9]: 142±32 U/L
percentage of fibrosis area (Sirius red-positive area) (NASH mice [4]; [6]): 0.88±0.33%
percentage of fibrosis area (Sirius red-positive area) (NASH mice [4]; [7]): 0.55±0.29%
percentage of fibrosis area (Sirius red-positive area) (NASH mice [4]; [8]): 0.54±0.18%
percentage of fibrosis area (Sirius red-positive area) (NASH mice [4]; [9]): 0.51±0.09%
non-fasting blood glucose levels in whole blood [5, 6]: 675 ± 103 mg/dL
non-fasting blood glucose levels in whole blood [5, 7]: 590 ± 131 mg/dL
non-fasting blood glucose levels in whole blood [5, 8]: 639 ± 76 mg/dL
non-fasting blood glucose levels in whole blood [5, 9]: 632 ± 92 mg/dL
Collagen Type 3 mRNA expression levels (Collagen Type 3 mRNA; [10]): 3.23±0.54
Collagen Type 3 mRNA expression levels (Collagen Type 3 mRNA; [11]): 2.82±1.50
Collagen Type 3 mRNA expression levels (Collagen Type 3 mRNA; [12]): 2.81±0.89
Collagen Type 3 mRNA expression levels (Collagen Type 3 mRNA; [13]): 2.24±0.68
Collagen Type 1 mRNA expression levels (Collagen Type 1 mRNA; [10]): 4.48±0.91
Collagen Type 1 mRNA expression levels (Collagen Type 1 mRNA; [11]): 3.37±1.58
Collagen Type 1 mRNA expression levels (Collagen Type 1 mRNA; [12]): 3.06±1.12
Collagen Type 1 mRNA expression levels (Collagen Type 1 mRNA; [13]): 2.77±0.77
TGF-β mRNA expression levels (TGF-β mRNA; [10]): 2.35±0.44
TGF-β mRNA expression levels (TGF-β mRNA; [11]): 1.93±0.44
TGF-β mRNA expression levels (TGF-β mRNA; [12]): 1.69±0.49
TGF-β mRNA expression levels (TGF-β mRNA; [13]): 1.70±0.35
CCR2 mRNA expression levels (CCR2 mRNA; [10]): 2.60±0.60
CCR2 mRNA expression levels (CCR2 mRNA; [11]): 3.26±2.01
CCR2 mRNA expression levels (CCR2 mRNA; [12]): 2.82±0.88
CCR2 mRNA expression levels (CCR2 mRNA; [13]): 3.10±1.55

CCCc1nc2c(C)cc(-c3nc4ccccc4n3C)cc2n1Cc1ccc(-c2ccccc2C(=O)O)cc1 [Telmisartan, reference compound]
liver hydroxyproline content (NASH mice [1]; [14]): 1.46 ± 0.69 µg/mg
TIMP-1 mRNA expression levels (TIMP-1 mRNA; [15]): 4.22±1.52
NAS (NASH mice [2]; [16]): significantly decreased
liver weight (NASH mice [2]; [16]): significantly decreased
α-SMA mRNA expression levels (α-SMA mRNA; [15]): 2.07±0.87
plasma ALP levels [3, 14]: 605±130 U/L
plasma ALT levels [3, 14]: 41±10 U/L
plasma AST levels [3, 14]: 232±141 U/L
percentage of fibrosis area (Sirius red-positive area) (NASH mice [4]; [14]): 0.44±0.12%
non-fasting blood glucose levels in whole blood ([5]; 15 mg/kg oral QD, 8-10 wks of age, detection limit 900 mg/dL): 900 ± 0 mg/dL
Collagen Type 3 mRNA expression levels (Collagen Type 3 mRNA; [15]): 2.09±0.50
Collagen Type 1 mRNA expression levels (Collagen Type 1 mRNA; [15]): 3.14±0.59
TGF-β mRNA expression levels (TGF-β mRNA; [15]): 1.58±0.23
CCR2 mRNA expression levels (CCR2 mRNA; [15]): 1.94±0.37
